Measured values published in the CombiSolv-Exp solvation set (Vermeire and Green 2021).
Blank lines part the entries; values can stand above or below the compound they belong to.

Assay: solvent given as SMILES
[1] = in CCCCCCCCC=CCCCCCCCC(=O)OCC(COC(=O)CCCCCCCC=CCCCCCCCC)OC(=O)CCCCCCCC=CCCCCCCCC

SMILES: C1CCOCC1
- solvation free energy, 298 K (in C1COCCO1): -4.53 kcal/mol
- solvation free energy, 298 K (in CC(C)CCl): -4.65 kcal/mol
- solvation free energy, 298 K (in CCC(C)Cl): -4.65 kcal/mol
- solvation free energy, 298 K (in CCCCCCCCCCCCCCCC): -3.89 kcal/mol
- solvation free energy, 298 K (in CCCCCCCCO): -4.34 kcal/mol
- solvation free energy, 298 K (in CCCCCl): -4.71 kcal/mol
- solvation free energy, 298 K (in O): -3.12 kcal/mol
- solvation free energy, 298 K (in [2H]O[2H]): -3.08 kcal/mol

- solvation free energy, 298 K (in O): -0.55 kcal/mol
SMILES: C=CC(C)=CCCC(=C)C

- solvation free energy, 298 K (in C=CCCCCCCC=C): -9.51 kcal/mol
- solvation free energy, 298 K (in C=CCCCCCCCCCCCCCC): -9.45 kcal/mol
- solvation free energy, 298 K (in O): -9.04 kcal/mol
SMILES: O=C(O)c1cccc2ccccc12

- solvation free energy, 298 K (in O): -6.08 kcal/mol
SMILES: C=C(C)C(=O)O

- solvation free energy, 298 K (in O): 1.12 kcal/mol
SMILES: CC1(C)CCCC2(C)C3CC4C(C31)C42C (centres undefined)

- solvation free energy, 298 K (in CC(C)CC(C)(C)C): -8.62 kcal/mol
- solvation free energy, 298 K (in CCCCCC): -9.26 kcal/mol
- solvation free energy, 298 K [1]: -10.2 kcal/mol
SMILES: CCCCCCCCCCCCO

SMILES: Nc1cnn(-c2ccccc2)c(=O)c1Cl
- solvation free energy, 298 K (in O): -16.4 kcal/mol

- solvation free energy, 298 K (in O): -1.15 kcal/mol
SMILES: Cc1cccc(C)c1C

SMILES: Oc1ccc2ccccc2c1
- solvation free energy, 298 K (in Brc1ccccc1): -10.4 kcal/mol
- solvation free energy, 298 K (in CC(C)CC(C)(C)C): -8.21 kcal/mol
- solvation free energy, 298 K (in CCCCCC): -8.46 kcal/mol
- solvation free energy, 298 K (in CCCCCCC): -8.53 kcal/mol
- solvation free energy, 298 K (in CCCCCCCC): -8.63 kcal/mol
- solvation free energy, 298 K (in CCCCCCCCCC): -8.61 kcal/mol
- solvation free energy, 298 K (in ClC(Cl)(Cl)Cl): -9.45 kcal/mol
- solvation free energy, 298 K (in ClC(Cl)Cl): -10.5 kcal/mol
- solvation free energy, 298 K (in Clc1ccccc1): -10.3 kcal/mol
- solvation free energy, 298 K (in O): -8.12 kcal/mol

SMILES: Cc1ccccc1O
- solvation free energy, 298 K (in CC(C)CC(C)(C)C): -5.68 kcal/mol
- solvation free energy, 298 K (in O): -5.85 kcal/mol

- solvation free energy, 298 K (in O): -4.97 kcal/mol
SMILES: CC(=O)OC(C)OC(C)=O

- solvation free energy, 298 K (in O): 0.52 kcal/mol
SMILES: C=C1CC2CCC1C2(C)C (centres undefined)

- solvation free energy, 298 K (in CC(C)O): -12.3 kcal/mol
- solvation free energy, 298 K (in CCCO): -12.2 kcal/mol
- solvation free energy, 298 K (in CCO): -12.6 kcal/mol
- solvation free energy, 298 K (in O): -12.6 kcal/mol
- solvation free energy, 298 K (in O=C1CCCCC1): -11.7 kcal/mol
SMILES: O=C(O)CCC(=O)O

- solvation free energy, 298 K (in O): -11.9 kcal/mol
SMILES: COCCCNc1nc(NC(C)C)nc(SC)n1

- solvation free energy, 298 K (in O): -3.9 kcal/mol
SMILES: C=C(C)C1CC=C(C)C(OC(=O)CCC)C1 (centres undefined)

- solvation free energy, 298 K (in O): 3.02 kcal/mol
SMILES: CCCCC(C)(C)C

SMILES: ClC1=C(Cl)C2(Cl)C3C4OC4C(Cl)C3C1(Cl)C2(Cl)Cl (centres undefined)
- solvation free energy, 298 K [1]: -13 kcal/mol
- solvation free energy, 298 K (in CCCCCCCCO): -11.7 kcal/mol

- solvation free energy, 298 K (in O): -6.44 kcal/mol
SMILES: COc1c(Cl)cc(Cl)c(OC)c1O

- solvation free energy, 298 K (in O): 0.25 kcal/mol
SMILES: C=C(C)C1CCC(C)C12CC=C(C)CC2 (centres undefined)

SMILES: COc1ccc(N)cc1
- solvation free energy, 298 K (in CC(C)CCO): -8.92 kcal/mol
- solvation free energy, 298 K (in O): -7.54 kcal/mol

SMILES: Cc1cc(Cl)c(Cl)cc1Cl
- solvation free energy, 298 K [1]: -7.99 kcal/mol
- solvation free energy, 298 K (in O): -1.05 kcal/mol

SMILES: Oc1ccc(Cl)cc1
- solvation free energy, 298 K (in CC(C)CC(C)(C)C): -6.6 kcal/mol
- solvation free energy, 298 K (in CCCCCC): -6.91 kcal/mol
- solvation free energy, 298 K (in CCCCCCC): -6.89 kcal/mol
- solvation free energy, 298 K (in CCCCCCCC): -6.88 kcal/mol
- solvation free energy, 298 K (in CCCCCCCCCC): -6.89 kcal/mol
- solvation free energy, 298 K (in Cc1ccc(C)cc1): -8.29 kcal/mol
- solvation free energy, 298 K (in Cc1cccc(C)c1): -8.39 kcal/mol
- solvation free energy, 298 K (in Cc1ccccc1C): -8.48 kcal/mol
- solvation free energy, 298 K (in O): -7.04 kcal/mol

SMILES: Nc1cccc(Cl)c1
- solvation free energy, 298 K (in O): -5.9 kcal/mol
